Source: patent EP0222670A1, “Dissolved composition of (benzo-1,2,4-thiadiazine)-1,1-dioxide” (SHISEIDO COMPANY LIMITED, priority 1985, dated 1987)

Test: solubilities of the dioxide in various solvents at room temperature
Assay type: physicochemical
Design: key: completely and transparently dissolved; x: partially not dissolved, with presence of crystals
Description: The solubilities of 7-chloro-3-methyl-2H[benzo-l,2,4-thiadiazine]-l,l-dioxide in various solvents at room temperature are shown in Table l.
• *l: The dioxide is 7-chloro-3-methyl-2H-[benzo-l,2,4-thiadiazine]-l,l-dioxide • *2: Dipropylene glycol
In the Table, o: completely and transparently dissolved; x: partially not dissolved, with presence of crystals.

solubility of Dioxide in solvent (solvent BA, Dioxide 0.2 % by weight): o
solubility of Dioxide in solvent (solvent BA, Dioxide 1.0 % by weight): o
solubility of Dioxide in solvent (solvent BA, Dioxide 2.0 % by weight): x
solubility of Dioxide in solvent (solvent BA, Dioxide 3.0 % by weight): x
solubility of Dioxide in solvent (solvent BA/IPA = 1/9, Dioxide 0.2 % by weight): o
solubility of Dioxide in solvent (solvent BA/IPA = 1/9, Dioxide 1.0 % by weight): o
solubility of Dioxide in solvent (solvent BA/IPA = 1/9, Dioxide 2.0 % by weight): x
solubility of Dioxide in solvent (solvent BA/IPA = 1/9, Dioxide 3.0 % by weight): x
solubility of Dioxide in solvent (solvent BA/IPA/aqueous alkali solution (pH = 10) = 1/3/6, Dioxide 0.2 % by weight): o
solubility of Dioxide in solvent (solvent BA/IPA/aqueous alkali solution (pH = 10) = 1/3/6, Dioxide 1.0 % by weight): o
solubility of Dioxide in solvent (solvent BA/IPA/aqueous alkali solution (pH = 10) = 1/3/6, Dioxide 2.0 % by weight): o
solubility of Dioxide in solvent (solvent BA/IPA/aqueous alkali solution (pH = 10) = 1/3/6, Dioxide 3.0 % by weight): o
solubility of Dioxide in solvent (solvent DMSO, Dioxide 0.2 % by weight): o
solubility of Dioxide in solvent (solvent DMSO, Dioxide 1.0 % by weight): o
solubility of Dioxide in solvent (solvent DMSO, Dioxide 2.0 % by weight): o
solubility of Dioxide in solvent (solvent DMSO, Dioxide 3.0 % by weight): o
solubility of Dioxide in solvent (solvent DPG (Dipropylene glycol), Dioxide 0.2 % by weight): x
solubility of Dioxide in solvent (solvent DPG (Dipropylene glycol), Dioxide 1.0 % by weight): x
solubility of Dioxide in solvent (solvent DPG (Dipropylene glycol), Dioxide 2.0 % by weight): x
solubility of Dioxide in solvent (solvent DPG (Dipropylene glycol), Dioxide 3.0 % by weight): x
solubility of Dioxide in solvent (solvent Ethyl alcohol, Dioxide 0.2 % by weight): x
solubility of Dioxide in solvent (solvent Ethyl alcohol, Dioxide 1.0 % by weight): x
solubility of Dioxide in solvent (solvent Ethyl alcohol, Dioxide 2.0 % by weight): x
solubility of Dioxide in solvent (solvent Ethyl alcohol, Dioxide 3.0 % by weight): x
solubility of Dioxide in solvent (solvent IPA, Dioxide 0.2 % by weight): o
solubility of Dioxide in solvent (solvent IPA, Dioxide 1.0 % by weight): x
solubility of Dioxide in solvent (solvent IPA, Dioxide 2.0 % by weight): x
solubility of Dioxide in solvent (solvent IPA, Dioxide 3.0 % by weight): x
solubility of Dioxide in solvent (solvent IPA/DPG = 1/1, Dioxide 0.2 % by weight): o
solubility of Dioxide in solvent (solvent IPA/DPG = 1/1, Dioxide 1.0 % by weight): x
solubility of Dioxide in solvent (solvent IPA/DPG = 1/1, Dioxide 2.0 % by weight): x
solubility of Dioxide in solvent (solvent IPA/DPG = 1/1, Dioxide 3.0 % by weight): x
solubility of Dioxide in solvent (solvent IPA/DPG/aqueous alkali solution (pH = 10) = 2/1/1, Dioxide 0.2 % by weight): o
solubility of Dioxide in solvent (solvent IPA/DPG/aqueous alkali solution (pH = 10) = 2/1/1, Dioxide 1.0 % by weight): o
solubility of Dioxide in solvent (solvent IPA/DPG/aqueous alkali solution (pH = 10) = 2/1/1, Dioxide 2.0 % by weight): o
solubility of Dioxide in solvent (solvent IPA/DPG/aqueous alkali solution (pH = 10) = 2/1/1, Dioxide 3.0 % by weight): o
Substance: 7-chloro-3-methyl-2H-[benzo-l,2,4-thiadiazine]-l,l-dioxide
